Several values for one entry are separate records, joined by “and”; a condition that tells them apart may be missing. Equal entries are not always repeated. Where two headings read alike, the source gives them in different places.
Columns and labels:
COVID-19 [1] = assay: Compassionate use in large-scale (132 cases) COVID-19 patients; type: in vivo, human; details: patients who took leflunomide within 18 days of admission
[2] = Drug toxicity by CellTiter-Glo (CC50), 2019-nCoV host cells; details: African green monkey, Vero E6 cells
Ebola virus replicon = assay: microbe, parasite or virus in culture; type: cell-based; details: for IC50: Zaire ebolavirus
in vitro = details: Syrian hamster
[3] = test system: influenza virus A/WSN/33 (H1N1); parameters: species or system BALB/c female mice; details: mouse, in vivo
[4] = test system: 2019-nCoV (2019BetaCoV/Wuhan/WIV04/2019 strain); assay: microbe, parasite or virus in culture; type: cell-based
MDCK cells = details: dog
[5] = Antiviral activity in combination with other antiviral drugs; details: combined with lopinavir, ritonavir, ribavirin, remdesivir, oseltamivir, tamiflu, lanimivir, peramivir, chloroquine
[6] = test system: avian influenza virus A/GuangZhou/99 (H9N2); assay: organism not typed; type: cell-based
COVID-19 [7] = assay: Compassionate use in small-scale (10 cases) COVID-19 patients; type: in vivo, human
[8] = Severe acute respiratory syndrome coronavirus 2, Vero C1008, 48 h

Structure (SMILES): Cc1oncc1C(=O)Nc1ccc(C(F)(F)F)cc1 [Leflunomide, leflunomide]
- time from taking leflunomide (LEF) to negative conversion (VC), median (COVID-19 [1]): 6.5 days
- time from admission (AD) to negative conversion (VC), median (COVID-19 [1]; control group median 25 days): 16 days
- CC50 at 72 h [2]: 879 µM
- SI (Ebola virus replicon): 10.66
- IC50 (Ebola virus replicon; BSR-T7/5, 24 h): 15.3 µM
- CC50 (in vitro): 163 µM
- mice rescued from death [3]: 50% and 100%
- SI [4]: 21.19
- IC50 [4, 8]: 41.5 µM
- CC50 (MDCK cells): 69.6 µM
- therapeutic effects in combination with other antiviral drugs [5]: better therapeutic effects
- SI [6]: 8.58
- IC50 ([6]; MDCK): 8.12 µM
- Time to negative conversion after treatment (COVID-19 [7]; leflunomide experimental group, Number of Patients 1): 4 days
- Time to negative conversion after treatment (COVID-19 [7]; leflunomide experimental group, Number of Patients 3): 8 days
- Time to negative conversion after treatment (COVID-19 [7]; leflunomide experimental group, Number of Patients 4): 5 days
- CRP after treatment (COVID-19 [7]; leflunomide experimental group, n = 5, range (5-5), normal 0-10, P value 0.109 vs before): 5 mg/L
- CRP before treatment (COVID-19 [7]; leflunomide experimental group, n = 5, range (7.8-120.6), normal 0-10): 37.4 mg/L
- level of C-reactive protein (COVID-19 [7]; small-scale (10 cases), after leflunomide treatment): significantly reduced
- time to negative conversion (median) (COVID-19 [7]; small-scale (10 cases), control group median 11 days, P=0.046): 5 days

Structure (SMILES): C/C(O)=C(\C#N)C(=O)Nc1ccc(C(F)(F)F)cc1 [Teriflunomide, teriflunomide]
- SI (Ebola virus replicon): 32.26
- IC50 (Ebola virus replicon; BSR-T7/5, 24 h): 3.41 µM
- IC50 (Ebola virus replicon; BSR-T7/5, read-out: drug concentration at which inhibitory efficiency on virus replication reaches 50%): 0.923 mg/L
- CC50 (in vitro): 110 µM
- SI [4]: 141.75
- IC50 [4, 8]: 6 µM
- IC50 ([4]; Severe acute respiratory syndrome coronavirus 2, Vero C1008, read-out: drug concentration at which inhibitory efficiency on virus replication reaches 50%): 1.62 mg/L
- SI [6]: 53.13
- IC50 ([6]; MDCK): 3.36 µM
- IC50 ([6]; unidentified influenza virus, H9N2, MDCK, read-out: drug concentration at which inhibitory efficiency on virus replication reaches 50%): 0.9 mg/L
